Consider one molecule from ChEMBL document CHEMBL3351853, “Discovery of small molecular inhibitors targeting HIV-1 gp120-CD4 interaction drived from BMS-378806” (Eur J Med Chem, 2014).

The assay is described as follows: Inhibition of HIV-1 gp120/CD4 interaction.

For the molecule `C[C@@H]1CN(C(=O)c2ccccc2)CCN1C(=O)C(=O)c1c[nH]c2ccccc12`, the concentration giving a half-maximal response (EC50) is 4 nM.

In general, EC50 refers to the midpoint of the concentration-response curve.
